{
  "source": "patent US7348301B2",
  "about": "“Lysozyme-based method and composition to control the growth of microorganisms in aqueous systems” (Buckman Laboratories International, Inc., priority 2006, dated 2008)",
  "key": {"[1]": {"test_system": "Phormidium faveolarum (UTEX 427)", "test": "Evaluation of algaecidal activity (MIC, checkerboard synergy) against Phormidium faveolarum", "format": "cell-based", "settings": "<1 denotes synergy", "method": "(§1) A. Evaluation of Algaecidal Activity. This test method provides a technique for testing compounds for their effectiveness to inhibit (repress) algae growth.\n(§2) Cell suspension from a culture grown in modified Allen's medium for 14 days or as needed to attain a desired cell mass of Chlorella sp. (ATCC 7516) or Phormidium faveolarum (UTEX 427). The inoculum is calibrated at 82% transmittance measured at 590 nanometers wavelength before inoculation.\n(§3) Sterilize the medium in the autoclave for 20 minutes at 15 pounds pressure (121° C.). After autoclaving, cool medium to 45-50° C. and dispense 5 ml of medium per test tube, then add the compound and the inoculum.\n(§4) Prepare a stock solution in water of the compound to be tested. The concentration of the stock solution is dependent on the largest dosage desired to be tested. Dilute the stock solution to obtain dosages smaller than that chosen for the stock solution. A maximum amount of 100 microliters of stock solution or the corresponding dilution should be added per test tube.\n• Add 100 microliters of inoculum per test tube, per type of medium and type of inoculum. Incubation: • Place the test tubes containing the treatments in an incubator set at 24° C. […]\nSynergy was measured by checkerboards dilutions (Yan and Hancock, 2001), in which one compound is diluted along the rows of test tubes and the other is diluted along the columns. […]"}, "[2]": {"test_system": "Chlorella sp. (ATCC 7516)", "test": "Evaluation of algaecidal activity (MIC, checkerboard synergy) against Chlorella sp.", "format": "cell-based", "settings": "for [A]/MICA + [B]/MICB (Fractional Inhibitory Concentration Index, FIC): Chlorella sp., <1 denotes synergy; for MIC (ppm product): Chlorella sp. (ATCC 7516), 14 days at 24 C, 16 h light/8 h darkness, enzyme alone", "method": "as §1, §2, §3, §4\n• Add 100 microliters of inoculum per test tube, per type of medium and type of inoculum. Incubation: • Place the test tubes containing the treatments in an incubator set at 24° C. Light is provided by plant growth fluorescent tubes set to provide 16 h of light and 8 h of darkness. […] The minimum inhibitory concentration (MIC) of the compound is the smallest dosage showing negative algae growth. Synergy Evaluation:\nSynergy was measured by checkerboards dilutions (Yan and Hancock, 2001), in which one compound is diluted along the rows of test tubes and the other is diluted along the columns. This method focuses on looking for a reduction in the MIC of each component in the presence of the other."}},
  "data": [
    {"compound": "[Cl-].[Na+]", "note": "[Sodium Chloride]", "values": [
      {"measurement": "[A]/MICA + [B]/MICB (Fractional Inhibitory Concentration Index, FIC)", "setting": "[1]; Example 11, 14 days", "value": 1.00},
      {"measurement": "[A]/MICA + [B]/MICB (Fractional Inhibitory Concentration Index, FIC)", "setting": "[2]; Example 10, 14 days", "value": 1.000}
    ]},
    {"compound": "Benzalkonium Chloride [reference compound]", "values": [
      {"measurement": "[A]/MICA + [B]/MICB (Fractional Inhibitory Concentration Index, FIC)", "setting": "[1]; Example 2, 18 days", "value": 1.00},
      {"measurement": "[A]/MICA + [B]/MICB (Fractional Inhibitory Concentration Index, FIC)", "setting": "[2]; Example 1, 18 days", "value": 1.000}
    ]},
    {"compound": "Lysozyme Chloride [Lysozyme Chloride (MP Biomedicals)]", "values": [
      {"measurement": "MIC (ppm product)", "setting": "[2]", "value": "0.1-0.4 ppm product"}
    ]},
    {"compound": "Lysozyme Chloride [Lysozyme Chloride (NutriScience)]", "values": [
      {"measurement": "MIC (ppm product)", "setting": "[2]", "value": "0.4-0.7 ppm product"}
    ]},
    {"compound": "Lysozyme [Lysozyme (Sigma)]", "values": [
      {"measurement": "MIC (ppm product)", "setting": "[2]", "value": "0.4-0.7 ppm product"}
    ]}
  ]
}
